Test results as given in patent US20210072244A1, “METHODS AND COMPOSITIONS FOR TREATING MELANOMA RESISTANT” (INSERM (INSTITUT NATIONAL DE LA SANTÉ ET DE LA RECHERCHE …, priority 2018, published 2021).
Read-outs that look alike come from different tables or passages of the source.

How the values were obtained:
[1] = tested on: intracellular NAD+ in melanoma cells; test: Intracellular NAD+ measurement (NAD/NADH Quantitation Kit); format: cell-based, human; conditions: for intracellular NAD+ levels: 5 μM, 24 h (FIG. 1B)
Method: Human melanoma cell lines and short-term cultures derived from different patients with metastatic malignant melanoma cells were grown in DMEM supplemented with 7% FBS at 37° C. in a humidified atmosphere containing 5% CO2. PLX4032-sensitive and PLX4032-resistant melanoma cells were previously described (Bonet et al. 2012; Ohanna et al. 2014). Lipofectamine™ RNAiMAX and opti-MEM medium were purchased from Invitrogen (San Diego, Calif., USA). FK866 was obtained from Sigma, U0126 and GSK1120212 were purchased from Euromedex, and PD98059 and SCH77294 were obtained from Selleck Chemicals. The STAT5 inhibitor (CAS 285986-31-4) was purchased from Sigma. Intracellular NAD+ was measured using the NAD/NADH Quantitation Kit from Sigma according to the manufacturer's instructions.

[2] = tested on: WM9 melanoma cell xenograft; test: WM9 melanoma xenograft growth in nude mice; format: in vivo; conditions: 15 mg/kg every two days, athymic nude mice, versus vehicle, FIG. 4C
Method: (§1) Animal experiments were performed in accordance with French law and approved by a local institutional ethical committee. The animals were maintained in a temperature controlled facility (22° C.) on a 12-h light/dark cycle and provided free access to food (standard laboratory chow diet from UAR, Epinay-S/Orge, France). Human WM9 melanoma cells, responsive or resistant to PLX4032 (2×10^6 cells), were subcutaneously inoculated into 8-week-old female, immune-deficient, athymic, nude FOXN1nu mice (Harlan Laboratory). When the tumors became palpable (0.1-0.2 cm3), the mice received an intraperitoneal injection of PLX4032 (25 mg/kg), FK866 (15 mg/kg) or both drugs dissolved in a mixture of Labrafil M1944 Cs, dimethylacetamide, and Tween 80 (90:9:1, v/v/v) three times per week. Control mice were injected with Labrafil alone. The growth tumor curves were determined after measuring the tumor volume using the equation V=(L×W2)/2. At the end of the experiment, the mice were euthanized by cervical dislocation, and the tumors were harvested for immunofluorescence.

[3] = Body weight of treated mice; format: in vivo; conditions: FK866 15 mg/kg, not shown
Method: as §1

[4] = tested on: BRAFi-resistant A375 (A375R) and WM9 (WM9R) melanoma cells; test: Proliferation and PLX4032 sensitivity of BRAFi-resistant melanoma cells; format: cell-based, human
Method: (§2) The cells were seeded onto 12-well dishes (10×10^3 cells), and at 48 h post transfection or treatment, the cells were trypsinized from days 1 to 4, counted in triplicate using a hemocytometer. The experiments were performed at least three times.

[5] = tested on: A375R melanoma cell xenografts; test: PLX4032-resistant A375 (A375R) xenograft growth in mice; format: in vivo
[6] = tested on: BRAFi-resistant WM9 melanoma cell xenografts; test: PLX4032-resistant WM9 (WM9R) xenograft growth in nude mice; format: in vivo; conditions: FIG. 5F
Method: as §1

NAMPT [7] = test: NAMPT expression in melanoma cells (Western blot, QPCR); format: cell-based, human
Method: The proteins were visualized using the ECL system (Amersham).
The mRNA was isolated using TRIzol (Invitrogen) according to a standard procedure. QRT-PCR was performed using SYBR® Green I (Eurogentec, Seraing, Belgium) and Multiscribe Reverse Transcriptase (Applied Biosystems) and subsequently monitored using the ABI Prism 7900 Sequence Detection System (Applied Biosystems, Foster City, Calif.). The detection of the SB34 gene was used to normalize the results. Primer sequences for each cDNA were designed using either Primer Express Software (Applied Biosystems) or qPrimer depot (http://primerdepot.nci.nih.gov), and these sequences are available upon request.

[8] = tested on: BRAFV600E human melanoma cells; test: Cell proliferation / viability (cell counting), BRAFV600E cells; format: cell-based
Method: as §2

ERK = ERK phosphorylation (Western blot); format: cell-based, human; conditions: for ERK phosphorylation levels: A375 melanoma cells, data not shown; for ERK phosphorylation: A375 and WM9 cells
Method: (§3) Western blotting was performed as previously described (Hilmi et al. 2008; Bertolotto et al. 2011). Briefly, cell lysates (30 μg) were separated using SDS-PAGE, transferred onto a PVDF membrane and subsequently exposed to the appropriate antibodies, anti-ERK2 (Santa Cruz Biotechnology, sc-1647 clone D-2), anti-phospho-ERK1/2 (Thr202/Tyr204) (Cell Signaling Technology Inc., #2370), anti-BRAF (Santa Cruz Biotechnology, sc-5284 clone F-7), anti-NAMPT (Sigma, #B5812), antiphospho-STAT5 (Tyr694) (Ozyme #9351), anti-STAT5 (Ozyme #9363), and anti-HSP90 (Santa Cruz biotechnology, #sc-13119). The proteins were visualized using the ECL system (Amersham). The western blots shown are representative of at least 3 independent experiments.

NAMPT [9] = conditions: public microarray data GSE51115, melanoma cell lines; cited from earlier work
human NAMPT promoter = test: NAMPT promoter luciferase reporter assay; format: cell-based
[10] = tested on: BRAFWT human melanoma cells; test: Cell proliferation (cell counting), BRAFWT cells; format: cell-based; conditions: data not shown
Method: as §2

STAT5 = STAT5 phosphorylation (Western blot); format: cell-based, human; conditions: A375 and WM9 cells
Method: as §3

[11] = tested on: UACC62 and WM9 human melanoma cell lines (BRAFV600E); test: Global metabolic profiling by UPLC-MS/MS; format: cell-based; conditions: FIG. 1A
Method: Briefly, samples were prepared using the automated MicroLab STAR® system (Hamilton Company). Recovery standards were added prior to the first step in the extraction process for QC purposes. Cell lysates were precipitated using methanol under vigorous shaking for 2 min, followed by centrifugation. The resulting extract was divided into five fractions: two samples for analysis using two separate reversephase (RP)/UPLC-MS/MS methods with positive ion mode electrospray ionization (ESI), one sample for analysis through RP/UPLC-MS/MS with negative ion mode ESI, one sample for analysis through HILIC/UPLC-MS/MS with negative ion mode ESI, and one sample was reserved for backup. The samples were briefly placed on a TurboVap® (Zymark) to remove the organic solvent. The sample extracts were stored overnight under nitrogen prior to preparation for analysis. Chromatography analyses were performed using Waters ACQUITY ultra-performance liquid chromatography (UPLC) and a Thermo Scientific Q-Exactive high resolution/accurate mass spectrometer interfaced with a heated electrospray ionization (HESI-II) source and Orbitrap mass analyzer operated at 35,000 mass resolution. The sample extract was dried and subsequently reconstituted in solvents compatible to each method (Miller et al. 2015). […]

[12] = A375 melanoma cells, data not shown

In the case of `O=C(/C=C/c1cccnc1)NCCCCC1CCN(C(=O)c2ccccc2)CC1` [FK866], the “intracellular levels of NAD+” value ([1]; A375 and WM9 melanoma cell lines, FIG. 4A) is reported as “dramatically decreased”, the “WM9 melanoma cell xenograft growth” value [2] is reported as “impaired” and the “weight loss in the treated mice” value [3] is reported as “no weight loss”. For the same compound, the “PLX4032 sensitivity in BRAFi-resistant cells” value ([4]; A375R and WM9R, PLX4032 5 μM) was “restored PLX4032 sensitivity”, the melanoma cell death ([4]; BRAFi-resistant melanoma cells, both in vitro and in vivo) was “caused melanoma cell death” and the “melanoma progression (A375R xenograft)” value ([5]; FK866 1.5 mg/kg and 15 mg/kg, FIG. 5E) was “dose-dependently reduced”. The “NAD+ in treated tumors” value ([5]; FK866-treated tumors, data not shown) was “reduction”, the “tumor growth of BRAFi-resistant WM9 xenografts” value [6] was “inhibited tumor growth” and the NAMPT expression (NAMPT [7]; A375 and WM9 cells, NAMPT siRNA or FK866) was “did not affect”. The cell proliferation ([8]; A375 and WM9 melanoma cells, counted each day, FIG. 4B) was “impaired cell proliferation”.
In the case of `CC(=O)Nc1cccc(-n2c(=O)n(C3CC3)c(=O)c3c(Nc4ccc(I)cc4F)n(C)c(=O)c(C)c32)c1` [GSK1120212], the ERK phosphorylation levels (ERK) is reported as “inhibition of ERK phosphorylation levels” and the NAMPT expression (NAMPT [7]; [12]) is reported as “inhibition of NAMPT expression”.
With `COc1cccc(-c2cc(=O)c3ccccc3o2)c1N` [PD98059] the ERK phosphorylation levels (ERK) was “inhibition of ERK phosphorylation levels” and the NAMPT expression (NAMPT [7]; [12]) was “inhibition of NAMPT expression”.
For `O=C(NOC[C@H](O)CO)c1ccc(F)c(F)c1Nc1ccc(I)cc1F` [PD0325901], the NAMPT expression (NAMPT [9]) is listed as “inhibition of NAMPT expression”.
With `CCCS(=O)(=O)Nc1ccc(F)c(C(=O)c2c[nH]c3ncc(-c4ccc(Cl)cc4)cc23)c1F` [PLX4032] the ERK phosphorylation (ERK) was “inhibited”, the “intracellular NAD+ levels” value ([1]; BRAFWT human melanoma cells) was “not in BRAFWT human melanoma cells” and the “intracellular NAD+ levels” value ([1]; all BRAFV600E-mutated melanoma cell lines and short-term cultures) was “reduced intracellular NAD+ levels”. For the same compound, the NAMPT promoter activity (human NAMPT promoter; A375 and WM9 cells, FIGS. 3A-B) was “dose-dependent decrease”, the “NAMPT promoter activity, significance over doses” value (human NAMPT promoter; A375 cells, 48 h, p<0.0034) was “all the PLX4032 doses lead to significant decrease” and the “PLX4032 dose giving significant decrease in NAMPT promoter activity” value (human NAMPT promoter; WM9 cells, 48 h, p<0.014, in µM) was > 0.005. For the same compound, the cell proliferation [10] was “not in BRAFWT human melanoma cells”, the “tumor growth of BRAFi-resistant WM9 xenografts” value [6] was “not affected” and the “NAMPT expression, protein level” value (NAMPT [7]; 4 different BRAFV600E melanoma cells, data not shown) was “reduced NAMPT expression”. For the same compound, the “NAMPT expression, mRNA level” value (NAMPT [7]; BRAFV600E melanoma cells, QPCR, FIG. 2A) was “reduced NAMPT expression”, the NAMPT expression (NAMPT [7]; BRAFWT human melanoma cells, data not shown) was “No inhibition” and the STAT5 phosphorylation (STAT5) was “inhibited”. The “nicotinamide adenine dinucleotide (NAD+) levels” value [11] was “reduced”, the viability ([8]; A375 and WM9 melanoma cells, 5 μM, 72 h (FIG. 5B)) was “inhibited the viability” and the cell proliferation ([8]; BRAFV600E human melanoma cells, data not shown) was “inhibited cell proliferation”.
In the case of `O=C(Nc1ccc2[nH]nc(-c3ccncc3)c2c1)[C@@H]1CCN(CC(=O)N2CCN(c3ccc(-c4ncccn4)cc3)CC2)C1` [SCH77294], the ERK phosphorylation levels (ERK) is reported as “inhibition of ERK phosphorylation levels” and the NAMPT expression (NAMPT [7]; [12]) is reported as “inhibition of NAMPT expression”.
For `O=C(N/N=C/c1coc2ccccc2c1=O)c1cccnc1` [STAT5 inhibitor], the ERK phosphorylation (ERK) was “did not affect”, the “NAD+ levels” value ([1]; A375 and WM9 cells exposed to STAT5 inhibitor, FIG. 3F) was “decreased” and the “BRAFV600E-stimulated NAMPT promoter activity” value (human NAMPT promoter; 501MEL cells transfected with BRAFV600E vector, 100 μM, 48 h (FIG. 3E)) was “decreased”. For the same compound, the “basal NAMPT promoter activity” value (human NAMPT promoter; 501MEL cells, control vector, 100 μM, 48 h (FIG. 3E)) was “decreased”, the NAMPT expression (NAMPT [7]; BRAF and STAT5 inhibitors, data not shown) was “decreased” and the STAT5 phosphorylation (STAT5) was “efficiently reduced”.
With `N#CC(=C(/N)Sc1ccccc1N)/C(C#N)=C(\N)Sc1ccccc1N` [U0126] the ERK phosphorylation levels (ERK) was “inhibition of ERK phosphorylation levels” and the NAMPT expression (NAMPT [7]; [12]) was “inhibition of NAMPT expression”.
